{"source": "patent US8236964B2", "about": "“Thiazolidine derivatives as orexin receptor antagonists” (Actelion Pharmaceuticals Ltd., priority 2007, dated 2012)", "key": {"human orexin-2 receptor": {"target": "T1, human orexin-2 receptor (Homo sapiens, UniProt O43614)", "T1 construct": "expressed in transfected cells; host or cells: CHO cells (G418 selection)", "T1 sequence (O43614 1-444)": "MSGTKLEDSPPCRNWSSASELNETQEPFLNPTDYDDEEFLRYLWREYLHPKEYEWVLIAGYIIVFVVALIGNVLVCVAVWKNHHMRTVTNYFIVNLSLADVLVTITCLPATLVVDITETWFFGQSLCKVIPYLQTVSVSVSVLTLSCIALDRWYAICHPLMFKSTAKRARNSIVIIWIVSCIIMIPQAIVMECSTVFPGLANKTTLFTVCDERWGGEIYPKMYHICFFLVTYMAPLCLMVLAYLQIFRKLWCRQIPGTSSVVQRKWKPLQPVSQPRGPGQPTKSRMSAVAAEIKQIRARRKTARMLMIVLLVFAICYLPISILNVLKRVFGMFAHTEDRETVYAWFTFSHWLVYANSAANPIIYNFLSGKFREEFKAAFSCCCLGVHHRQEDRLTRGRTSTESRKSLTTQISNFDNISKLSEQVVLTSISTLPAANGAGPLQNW", "assay": "Intracellular calcium measurements (FLIPR), orexin receptor antagonistic activity, OX2", "assay_type": "cell-based", "conditions": "CHO cells expressing the human orexin-2 receptor; 10 nM orexin-A as agonist", "method": "(§1) The orexin receptor antagonistic activity of the compounds of formula (I) is determined in accordance with the following experimental method.\n(§2) Intracellular Calcium Measurements:\n(§3) Chinese hamster ovary (CHO) cells expressing the human orexin-1 receptor and the human orexin-2 receptor, respectively, are grown in culture medium (Ham F-12 with L-Glutamine) containing 300 μg/ml G418, 100 U/ml penicillin, 100 μg/ml streptomycin and 10% inactivated fetal calf serum (FCS). The cells are seeded at 80,000 cells/well into 96-well black clear bottom sterile plates (Costar) which have been precoated with 1% gelatine in Hanks' Balanced Salt Solution (HBSS). All reagents are from Gibco BRL. The seeded plates are incubated overnight at 37° C. in 5% CO2.\n(§4) Human orexin-A as an agonist is prepared as 1 mM stock solution in methanol:water (1:1), diluted in HBSS containing 0.1% bovine serum albumin (BSA) and 2 mM HEPES for use in the assay at a final concentration of 10 nM.\n(§5) Antagonists are prepared as 10 mM stock solution in DMSO, then diluted in 96-well plates, first in DMSO, then in HBSS containing 0.1% bovine serum albumin (BSA) and 2 mM HEPES.\n(§6) On the day of the assay, 100 μl of loading medium (HBSS containing 1% FCS, 2 mM HEPES, 5 mM probenecid (Sigma) and 3 μM of the fluorescent calcium indicator fluo-3 AM (1 mM stock solution in DMSO with 10% pluronic acid) (Molecular Probes) is added to each well.\n(§7) The 96-well plates are incubated for 60 min at 37° C. in 5% CO2. The loading solution is then aspirated and cells are washed 3 times with 200 μl HBSS containing 2.5 mM probenecid, 0.1% BSA, 2 mM HEPES. 100 μl of that same buffer is left in each well.\n(§8) Within the Fluorescent Imaging Plate Reader (FLIPR, Molecular Devices), antagonists are added to the plate in a volume of 50 μl, incubated for 20 min and finally 100 μl of agonist is added. Fluorescence is measured for each well at 1 second intervals, and the height of each fluorescence peak is compared to the height of the fluorescence peak induced by 10 nM orexin-A with buffer in place of antagonist. For each antagonist, IC50 value (the concentration of compound needed to inhibit 50% of the agonistic response) is determined. Antagonistic activities of compounds are in the nanomolar range below 1000 nM with respect to the OX1 and/or the OX2 receptor."}, "human orexin-1 receptor": {"target": "T2, human orexin-1 receptor (Homo sapiens, UniProt O43613)", "T2 construct": "expressed in transfected cells; host or cells: CHO cells (G418 selection)", "T2 sequence (O43613 1-425)": "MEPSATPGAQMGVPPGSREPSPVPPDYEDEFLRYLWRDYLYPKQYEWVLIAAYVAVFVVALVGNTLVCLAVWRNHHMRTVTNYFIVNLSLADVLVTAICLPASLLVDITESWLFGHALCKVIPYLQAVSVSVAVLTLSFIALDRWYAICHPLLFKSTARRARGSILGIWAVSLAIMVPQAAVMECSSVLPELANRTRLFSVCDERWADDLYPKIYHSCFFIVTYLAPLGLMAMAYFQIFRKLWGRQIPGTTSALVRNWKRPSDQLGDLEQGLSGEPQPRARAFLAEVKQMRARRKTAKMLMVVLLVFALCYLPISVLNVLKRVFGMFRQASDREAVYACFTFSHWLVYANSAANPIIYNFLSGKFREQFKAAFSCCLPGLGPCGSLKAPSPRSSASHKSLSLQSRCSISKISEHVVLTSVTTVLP", "assay": "Intracellular calcium measurements (FLIPR), orexin receptor antagonistic activity, OX1", "assay_type": "cell-based", "conditions": "CHO cells expressing the human orexin-1 receptor; 10 nM orexin-A as agonist", "method": "as §1, §2, §3, §4, §5, §6, §7\nas §8, with “determined.” for “determined. Antagonistic activities of compounds are in the nanomolar range below 1000 nM with respect to the OX1 and/or the OX2 receptor.”"}}, "data": [{"smiles": "Cc1nc(C(=O)N2CSC[C@H]2CNC(=O)c2c(C)cn3ccsc23)c(-c2ccc(F)cc2)s1", "note": "[Example 132, 6-Methyl-pyrrolo[2,1-b]thiazole-7-carboxylic acid {(R)-3-[5-(4-fluoro-phenyl)-2-methyl-thiazole-4-carbonyl]-thiazolidin-4-ylmethyl}-amide]", "values": [{"measurement": "IC50", "setting": "human orexin-2 receptor", "result": 6, "unit": "nM"}, {"measurement": "IC50", "setting": "human orexin-1 receptor", "result": 5, "unit": "nM"}]}, {"smiles": "COc1cccc(-c2sc(C)nc2C(=O)N2CSC[C@H]2CNC(=O)c2cccc3occc23)c1", "note": "[Example 11, Benzofuran-4-carboxylic acid {(R)-3-[5-(3-methoxy-phenyl)-2-methyl-thiazole-4-carbonyl]-thiazolidin-4-ylmethyl}-amide]", "values": [{"measurement": "IC50", "setting": "human orexin-2 receptor", "result": 1, "unit": "nM"}, {"measurement": "IC50", "setting": "human orexin-1 receptor", "result": 1, "unit": "nM"}]}, {"smiles": "Cc1nc(C(=O)N2CSC[C@H]2CNC(=O)c2c(C)nc3sccn23)c(-c2cccc(C(F)(F)F)c2)o1", "note": "[Example 38, 6-Methyl-imidazo[2,1-b]thiazole-5-carboxylic acid {(R)-3-[2-methyl-5-(3-trifluoromethyl-phenyl)-oxazole-4-carbonyl]-thiazolidin-4-ylmethyl}-amide]", "values": [{"measurement": "IC50", "setting": "human orexin-2 receptor", "result": 80, "unit": "nM"}, {"measurement": "IC50", "setting": "human orexin-1 receptor", "result": 59, "unit": "nM"}]}, {"smiles": "Cc1nc(C(=O)N2CSC[C@H]2CNC(=O)c2cc3ccccc3s2)c(-c2ccc(F)cc2)s1", "note": "[Example 91, Benzo[b]thiophene-2-carboxylic acid {(R)-3-[5-(4-fluoro-phenyl)-2-methyl-thiazole-4-carbonyl]-thiazolidin-4-ylmethyl}-amide]", "values": [{"measurement": "IC50", "setting": "human orexin-2 receptor", "result": 22, "unit": "nM"}, {"measurement": "IC50", "setting": "human orexin-1 receptor", "result": 5950, "unit": "nM"}]}, {"smiles": "Cn1nc(C(=O)NC[C@@H]2CSCN2C(=O)c2ccccc2-c2ccccc2)c2ccccc21", "note": "[Example 83, 1-Methyl-1H-indazole-3-carboxylic acid [(R)-3-(biphenyl-2-carbonyl)-thiazolidin-4-ylmethyl]-amide]", "values": [{"measurement": "IC50", "setting": "human orexin-2 receptor", "result": 6, "unit": "nM"}, {"measurement": "IC50", "setting": "human orexin-1 receptor", "result": 6, "unit": "nM"}]}, {"smiles": "COC1Cc2c(C(=O)NC[C@@H]3CSCN3C(=O)c3nc(C)sc3-c3cccc(C)c3)ccc(Cl)c2O1", "note": "(stereo partly drawn) [Example 133, 7-Chloro-2-methoxy-2,3-dihydro-benzofuran-4-carboxylic acid [(R)-3-(2-methyl-5-m-tolyl-thiazole-4-carbonyl)-thiazolidin-4-ylmethyl]-amide]", "values": [{"measurement": "IC50", "setting": "human orexin-2 receptor", "result": 3, "unit": "nM"}, {"measurement": "IC50", "setting": "human orexin-1 receptor", "result": 8, "unit": "nM"}]}, {"smiles": "Cc1cccc(-c2sc(C)nc2C(=O)N2CSC[C@H]2CNC(=O)c2cccc3oc(CO)cc23)c1", "note": "[Example 147, 2-Hydroxymethyl-benzofuran-4-carboxylic acid [(R)-3-(2-methyl-5-m-tolyl-thiazole-4-carbonyl)-thiazolidin-4-ylmethyl]-amide]", "values": [{"measurement": "IC50", "setting": "human orexin-2 receptor", "result": 10, "unit": "nM"}, {"measurement": "IC50", "setting": "human orexin-1 receptor", "result": 9, "unit": "nM"}]}, {"smiles": "Cc1nc(C(=O)N2CSC[C@H]2CNC(=O)c2cccc3c2NCCO3)c(-c2ccc(F)cc2)s1", "note": "[Example 112, 3,4-Dihydro-2H-benzo[1,4]oxazine-5-carboxylic acid {(R)-3-[5-(4-fluoro-phenyl)-2-methyl-thiazole-4-carbonyl]-thiazolidin-4-ylmethyl}-amide]", "values": [{"measurement": "IC50", "setting": "human orexin-2 receptor", "result": 17, "unit": "nM"}, {"measurement": "IC50", "setting": "human orexin-1 receptor", "result": 6, "unit": "nM"}]}, {"smiles": "O=C(NC[C@@H]1CSCN1C(=O)c1ccccc1-c1ccccc1)c1cccc2occc12", "note": "[Example 79, Benzofuran-4-carboxylic acid [(R)-3-(biphenyl-2-carbonyl)-thiazolidin-4-ylmethyl]-amide]", "values": [{"measurement": "IC50", "setting": "human orexin-2 receptor", "result": 9, "unit": "nM"}, {"measurement": "IC50", "setting": "human orexin-1 receptor", "result": 23, "unit": "nM"}]}, {"smiles": "Cc1nc(C(=O)N2CSC[C@H]2CNC(=O)c2c(C)nc3ccccn23)c(-c2ccc(F)cc2)s1", "note": "[Example 110, 2-Methyl-imidazo[1,2-a]pyridine-3-carboxylic acid {(R)-3-[5-(4-fluoro-phenyl)-2-methyl-thiazole-4-carbonyl]-thiazolidin-4-ylmethyl}-amide]", "values": [{"measurement": "IC50", "setting": "human orexin-2 receptor", "result": 804, "unit": "nM"}, {"measurement": "IC50", "setting": "human orexin-1 receptor", "result": 99, "unit": "nM"}]}, {"smiles": "Cc1ccc(-c2nc(C)sc2C(=O)N2CSC[C@H]2CNC(=O)c2c(C)nc3sccn23)cc1", "note": "[Example 41, 6-Methyl-imidazo[2,1-b]thiazole-5-carboxylic acid [(R)-3-(2-methyl-4-p-tolyl-thiazole-5-carbonyl)-thiazolidin-4-ylmethyl]-amide]", "values": [{"measurement": "IC50", "setting": "human orexin-2 receptor", "result": 11, "unit": "nM"}, {"measurement": "IC50", "setting": "human orexin-1 receptor", "result": 7, "unit": "nM"}]}, {"smiles": "Cc1cccc(-c2sc(C)nc2C(=O)N2CSC[C@H]2CNC(=O)c2ccc(C(F)(F)F)c3occc23)c1", "note": "[Example 141, 7-Trifluoromethyl-benzofuran-4-carboxylic acid [(R)-3-(2-methyl-5-m-tolyl-thiazole-4-carbonyl)-thiazolidin-4-ylmethyl]-amide]", "values": [{"measurement": "IC50", "setting": "human orexin-2 receptor", "result": 4, "unit": "nM"}, {"measurement": "IC50", "setting": "human orexin-1 receptor", "result": 10, "unit": "nM"}]}, {"smiles": "Cc1cccc(-c2sc(C)nc2C(=O)N2CSC[C@H]2CNC(=O)c2cccc3ncoc23)c1", "note": "[Example 119, Benzooxazole-7-carboxylic acid [(R)-3-(2-methyl-5-m-tolyl-thiazole-4-carbonyl)-thiazolidin-4-ylmethyl]-amide]", "values": [{"measurement": "IC50", "setting": "human orexin-2 receptor", "result": 3, "unit": "nM"}, {"measurement": "IC50", "setting": "human orexin-1 receptor", "result": 2, "unit": "nM"}]}, {"smiles": "Cc1nc(C(=O)N2CSC[C@H]2CNC(=O)c2c(C)nc3sccn23)c(-c2cccc(F)c2)s1", "note": "[Example 31, 6-Methyl-imidazo[2,1-b]thiazole-5-carboxylic acid {(R)-3-[5-(3-fluoro-phenyl)-2-methyl-thiazole-4-carbonyl]-thiazolidin-4-ylmethyl}-amide]", "values": [{"measurement": "IC50", "setting": "human orexin-2 receptor", "result": 7, "unit": "nM"}, {"measurement": "IC50", "setting": "human orexin-1 receptor", "result": 6, "unit": "nM"}]}, {"smiles": "Cc1nc(C(=O)N2CSC[C@H]2CNC(=O)c2nn(C)c3ccccc23)c(-c2ccc(F)cc2)s1", "note": "[Example 4, 1-Methyl-1H-indazole-3-carboxylic acid {(R)-3-[5-(4-fluoro-phenyl)-2-methyl-thiazole-4-carbonyl]-thiazolidin-4-ylmethyl}-amide]", "values": [{"measurement": "IC50", "setting": "human orexin-2 receptor", "result": 8, "unit": "nM"}]}, {"smiles": "Cc1cccc(-c2sc(C)nc2C(=O)N2CSC[C@H]2CNC(=O)c2ccc(F)c3occc23)c1", "note": "[Example 127, 7-Fluoro-benzofuran-4-carboxylic acid [(R)-3-(2-methyl-5-m-tolyl-thiazole-4-carbonyl)-thiazolidin-4-ylmethyl]-amide]", "values": [{"measurement": "IC50", "setting": "human orexin-2 receptor", "result": 1, "unit": "nM"}, {"measurement": "IC50", "setting": "human orexin-1 receptor", "result": 2, "unit": "nM"}]}]}
